Results on one molecule are retold here after US10766914B2, “DNA alkylating agents” (OBI PHARMA, INC., priority 2015, dated 2020).

The subject of data set [1] is LIXC-004. Briefly: TH2870 sensitivity in liver cancer cells. The data set is classed as cell-based, human. The conditions noted are these: AKR1C3 expression +++.
Data set [2] deals with SNU-398. The experiment in a line: TH2870 sensitivity in liver cancer cells. The settings on record: AKR1C3 expression /. The data set is classed as cell-based, human.
Data set [3] is described as follows: Example 4-B body weight change, A549 xenograft study. The format is in vivo, female nude mice (nu/nu). The settings on record: 20 mg/kg ip QD × 5/wk × 2 wks. As to the method: Cells were mixed with Matrigel (50% with exception for 30% in the H460) and 0.2 ml per mouse were subcutaneously implanted to the flank area of the animals. When tumor size reached 100-150 250 mm3, mice were randomized into experimental or vehicle groups with 10 mice/group and treatment was started (Day 1). The tested compounds were formulated in 5% DMSO in D5W. The regimens employed in the examples include IP, QD×5/wk (5 days on, 2 days off) as one cycle, for a total of 2 cycles; IP, once; IP, weekly for total 3 weeks; and IV, weekly for 3 weeks. Tumor growth and body weight were measured twice a week. Tumor volume was calculated as (length×width2)/2. Drug efficacy was assessed as Tumor Growth Inhibition (TGI) and Tumor Growth Delay (TGD). TGI was defined as (1−ΔT/ΔC)×100, where ΔT/ΔC presented the ratio of the change in mean (or median, if variation within the group was relatively large) tumor volume of the treated group and of the control group. TGD was calculated as the extra days for the treated tumor to reach 500 mm3 or 1000 mm3 as compared to the control group. Animals were culled when individual tumor size reached over 2000 mm3 or mean tumor volume exceeded 1000 mm3 in the group. Data are expressed as the mean±SEM. One-way analysis of variance with Dunnett post comparison test (GraphPad Prism 4) or two-tailed student's t-test were used for analysis. A P level <0.05 was considered statistically significant.
Antitumor effects of compounds provided herein were determined on A 549 non-small cell lung xenograft model in comparison with a chemotherapy agent, thiotepa. The dosing was as follows. Daily IP dosing: 5 doses then 2 days off then 5 more doses starting at 110 mm^3 tumors on day 1 (10 animals per group average tumor volume). The antitumor effects and the safety of administration are graphically illustrated below.

Data set [4] has as its target T1, AKR1C3 (Homo sapiens, UniProt P42330).
T1 sequence (P42330 1-323): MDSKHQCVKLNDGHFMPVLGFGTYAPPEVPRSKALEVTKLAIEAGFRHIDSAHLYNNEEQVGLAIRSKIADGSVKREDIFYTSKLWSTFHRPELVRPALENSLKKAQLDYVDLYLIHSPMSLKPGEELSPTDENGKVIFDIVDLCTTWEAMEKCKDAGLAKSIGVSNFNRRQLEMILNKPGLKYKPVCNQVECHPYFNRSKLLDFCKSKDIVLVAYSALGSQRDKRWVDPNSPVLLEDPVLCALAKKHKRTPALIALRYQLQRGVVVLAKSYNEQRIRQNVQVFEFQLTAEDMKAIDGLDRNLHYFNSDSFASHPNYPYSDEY
The experiment in a line: Activation by the aldoketo reductase AKR1C3 (% remaining, LC/MS/MS). The data set is classed as biochemical. The settings on record: for % Remaining: 5 μM, 25 μg/mL AKR1C3, 2 mM NADPH, 37° C. As to the method:
Recombinant human AKR1C3 was diluted to 25 μg/mL in phosphate buffered saline (PBS), pH 7.4 (37° C.), containing 2 mM NADPH. TH2870 or progesterone (positive control) in 30% methanol/70% water was added to the reaction mixture at a final concentration of 5 μM and incubated at 37° C. for 120 minutes. At various times up to 120 min, 50 μL of the reaction mixture was taken and 200 μL acetonitrile containing propranolol as internal standard was added, vortex-mixed and centrifuged for 10 min. The resulting supernatant (5 μL) was injected into a LC/MS/MS for quantitation of % remaining TH2870 and progesterone. The compounds were tested in duplicate.

The conditions of data set [5]: Nu-Foxn1nu NU/NU, mouse, in vivo, ip, 20 mg/kg.
Description: The pharmacokinetics of TH2870 were determined in Mouse/Nu-Foxn 1^nu NU/NU mice with A549 (non small cell lung), A375 (melanoma) and 786-O (renal cell) human tumor xenograft models following a single intraperitoneal dose of 20 mg/kg.
Setting [6] is: Homo sapiens, read-out: RelIC50.

On to `CC(OP(=O)(N1CC1)N1CC1)c1ccc([N+](=O)[O-])c(Oc2cccc(C(=O)N(C)C)c2)c1` (centres unmarked) [Compound 2870], for which the “Max Inhibition %” value in data set [1] turned out to be 83.6%; in data set [2], 15.3%. Moreover, the IC50 was 31.3 nM in data set [1] (setting [6]) and more than 1000 nM in data set [2] (setting [6]). The “Max. BW loss %” value in data set [3] came to 1.6%. The “% Remaining” value in data set [4] (0 min) is 100%; in data set [4] (15 min) it was 0.232%; in data set [4] (30 min) it was 0.0101%; in data set [4] (60 min) it was 0.00%; in data set [4] (90 min), 0.00%; in data set [4] (120 min), 0.00%. The “disappearance in the presence of AKR1C3” value in data set [4] (in words) is given as “rapid disappearance”. In addition, the “activation of TH2870 in liver (TH2660 relative to TH2870)” value in data set [5] is given as approximately 13 fold. The “activation of TH2870 in tumor (TH2660 relative to TH2870)” value in data set [5] was approximately 148 fold.
